In PubChem BioAssay AID1259407 (Chemical Carcinogenesis Research Information System (CCRIS), 2018):
Active and inactive are the calls of the source. The rule behind the calls is not given here.

Tested on: CCRIS mutagenicity, Ames/micronucleus/aberration tests
Assay: CCRIS mutagenicity studies

## CC(C)CON=O
Test System: AMES SALMONELLA TYPHIMURIUM, Strain/Indicator: TA98, Metabolic Activation: HAMSTER, LIVER, S-9, AROCLOR 1254 (5 OR 10%), Method: PREINCUBATION
  mutagenic call: inactive; negative
Test System: AMES SALMONELLA TYPHIMURIUM, Strain/Indicator: TA98, Metabolic Activation: HAMSTER, LIVER, S-9, AROCLOR 1254 (30%), Method: PREINCUBATION
  mutagenic call: inactive; negative
Test System: AMES SALMONELLA TYPHIMURIUM, Strain/Indicator: TA98, Metabolic Activation: HAMSTER, LIVER, S-9, AROCLOR 1254, Method: STANDARD PLATE
  mutagenic call: inactive; negative
Test System: AMES SALMONELLA TYPHIMURIUM, Strain/Indicator: TA98, Metabolic Activation: NONE, Method: DESICCATOR
  mutagenic call: inactive; negative
Test System: AMES SALMONELLA TYPHIMURIUM, Strain/Indicator: TA98, Metabolic Activation: NONE, Method: FLUCTUATION (MICROTITER)
  mutagenic call: inactive; negative
Test System: AMES SALMONELLA TYPHIMURIUM, Strain/Indicator: TA98, Metabolic Activation: NONE, Method: PREINCUBATION
  mutagenic call: inactive; negative
Test System: AMES SALMONELLA TYPHIMURIUM, Strain/Indicator: TA98, Metabolic Activation: NONE, Method: STANDARD PLATE
  mutagenic call: inactive; negative
Test System: AMES SALMONELLA TYPHIMURIUM, Strain/Indicator: TA98, Metabolic Activation: RAT LIVER S-9, AROCLOR 1254, Method: FLUCTUATION (MICROTITER)
  mutagenic call: inactive; negative
Test System: AMES SALMONELLA TYPHIMURIUM, Strain/Indicator: TA98, Metabolic Activation: RAT, LIVER, S-9, AROCLOR 1254 (5 OR 10%), Method: PREINCUBATION
  mutagenic call: inactive; negative
Test System: AMES SALMONELLA TYPHIMURIUM, Strain/Indicator: TA98, Metabolic Activation: RAT, LIVER, S-9, AROCLOR 1254 (30%), Method: PREINCUBATION
  mutagenic call: inactive; negative
Test System: AMES SALMONELLA TYPHIMURIUM, Strain/Indicator: TA98, Metabolic Activation: RAT, LIVER, S-9, AROCLOR 1254, Method: DESICCATOR
  mutagenic call: inactive; negative
Test System: AMES SALMONELLA TYPHIMURIUM, Strain/Indicator: TA98, Metabolic Activation: RAT, LIVER, S-9, AROCLOR 1254, Method: STANDARD PLATE
  mutagenic call: inactive; negative
Test System: AMES SALMONELLA TYPHIMURIUM, Strain/Indicator: TA100, Metabolic Activation: HAMSTER, LIVER, S-9, AROCLOR 1254 (10%), Method: PREINCUBATION
  mutagenic call: active; positive
Test System: AMES SALMONELLA TYPHIMURIUM, Strain/Indicator: TA100, Metabolic Activation: HAMSTER, LIVER, S-9, AROCLOR 1254 (30%), Method: PREINCUBATION
  mutagenic call: active; positive
Test System: AMES SALMONELLA TYPHIMURIUM, Strain/Indicator: TA100, Metabolic Activation: HAMSTER, LIVER, S-9, AROCLOR 1254, Method: STANDARD PLATE
  mutagenic call: active; positive
Test System: AMES SALMONELLA TYPHIMURIUM, Strain/Indicator: TA100, Metabolic Activation: NONE, Method: PREINCUBATION
  mutagenic call: inactive; negative
Test System: AMES SALMONELLA TYPHIMURIUM, Strain/Indicator: TA100, Metabolic Activation: NONE, Method: STANDARD PLATE
  mutagenic call: active; positive
Test System: AMES SALMONELLA TYPHIMURIUM, Strain/Indicator: TA100, Metabolic Activation: RAT, LIVER, S-9, AROCLOR 1254 (10%), Method: PREINCUBATION
  mutagenic call: active; positive
Test System: AMES SALMONELLA TYPHIMURIUM, Strain/Indicator: TA100, Metabolic Activation: RAT, LIVER, S-9, AROCLOR 1254 (30%), Method: PREINCUBATION
  mutagenic call: active; positive
Test System: AMES SALMONELLA TYPHIMURIUM, Strain/Indicator: TA100, Metabolic Activation: RAT, LIVER, S-9, AROCLOR 1254, Method: DESICCATOR
  mutagenic call: active; positive
Test System: AMES SALMONELLA TYPHIMURIUM, Strain/Indicator: TA100, Metabolic Activation: RAT, LIVER, S-9, AROCLOR 1254, Method: STANDARD PLATE
  mutagenic call: active; positive
Test System: AMES SALMONELLA TYPHIMURIUM, Strain/Indicator: TA1535, Metabolic Activation: HAMSTER, LIVER, S-9, AROCLOR 1254 (10%), Method: PREINCUBATION
  mutagenic call: active; positive
Test System: AMES SALMONELLA TYPHIMURIUM, Strain/Indicator: TA1535, Metabolic Activation: HAMSTER, LIVER, S-9, AROCLOR 1254 (30%), Method: PREINCUBATION
  mutagenic call: active; positive
Test System: AMES SALMONELLA TYPHIMURIUM, Strain/Indicator: TA1535, Metabolic Activation: HAMSTER, LIVER, S-9, AROCLOR 1254, Method: STANDARD PLATE
  mutagenic call: active; positive
Test System: AMES SALMONELLA TYPHIMURIUM, Strain/Indicator: TA1535, Metabolic Activation: NONE, Method: DESICCATOR
  mutagenic call: active; positive
Test System: AMES SALMONELLA TYPHIMURIUM, Strain/Indicator: TA1535, Metabolic Activation: NONE, Method: STANDARD PLATE
  mutagenic call: active; positive
Test System: AMES SALMONELLA TYPHIMURIUM, Strain/Indicator: TA1535, Metabolic Activation: RAT, LIVER, S-9, AROCLOR 1254 (10%), Method: PREINCUBATION
  mutagenic call: inactive; negative
Test System: AMES SALMONELLA TYPHIMURIUM, Strain/Indicator: TA1535, Metabolic Activation: RAT, LIVER, S-9, AROCLOR 1254 (30%), Method: PREINCUBATION
  mutagenic call: active; positive
Test System: AMES SALMONELLA TYPHIMURIUM, Strain/Indicator: TA1535, Metabolic Activation: RAT, LIVER, S-9, AROCLOR 1254, Method: DESICCATOR
  mutagenic call: active; positive
Test System: AMES SALMONELLA TYPHIMURIUM, Strain/Indicator: TA1535, Metabolic Activation: RAT, LIVER, S-9, AROCLOR 1254, Method: PREINCUBATION
  mutagenic call: active; positive
Test System: AMES SALMONELLA TYPHIMURIUM, Strain/Indicator: TA1535, Metabolic Activation: RAT, LIVER, S-9, AROCLOR 1254, Method: STANDARD PLATE
  mutagenic call: active; positive
Test System: AMES SALMONELLA TYPHIMURIUM, Strain/Indicator: TA1537, Metabolic Activation: HAMSTER, LIVER, S-9, AROCLOR 1254 (10%), Method: PREINCUBATION
  mutagenic call: inactive; negative
Test System: AMES SALMONELLA TYPHIMURIUM, Strain/Indicator: TA1537, Metabolic Activation: HAMSTER, LIVER, S-9, AROCLOR 1254, Method: STANDARD PLATE
  mutagenic call: inactive; negative
Test System: AMES SALMONELLA TYPHIMURIUM, Strain/Indicator: TA1537, Metabolic Activation: NONE, Method: FLUCTUATION (MICROTITER)
  mutagenic call: inactive; negative
Test System: AMES SALMONELLA TYPHIMURIUM, Strain/Indicator: TA1537, Metabolic Activation: NONE, Method: PREINCUBATION
  mutagenic call: inactive; negative
Test System: AMES SALMONELLA TYPHIMURIUM, Strain/Indicator: TA1537, Metabolic Activation: NONE, Method: STANDARD PLATE
  mutagenic call: inactive; negative
Test System: AMES SALMONELLA TYPHIMURIUM, Strain/Indicator: TA1537, Metabolic Activation: RAT LIVER S-9, AROCLOR 1254, Method: FLUCTUATION (MICROTITER)
  mutagenic call: inactive; negative
Test System: AMES SALMONELLA TYPHIMURIUM, Strain/Indicator: TA1537, Metabolic Activation: RAT, LIVER, S-9, AROCLOR 1254 (10%), Method: PREINCUBATION
  mutagenic call: inactive; negative
Test System: AMES SALMONELLA TYPHIMURIUM, Strain/Indicator: TA1537, Metabolic Activation: RAT, LIVER, S-9, AROCLOR 1254, Method: STANDARD PLATE
  mutagenic call: inactive; negative
Test System: AMES SALMONELLA TYPHIMURIUM, Strain/Indicator: TA7001, Metabolic Activation: NONE, Method: FLUCTUATION (MICROTITER)
  mutagenic call: inactive; negative
Test System: AMES SALMONELLA TYPHIMURIUM, Strain/Indicator: TA7001, Metabolic Activation: RAT LIVER S-9, AROCLOR 1254, Method: FLUCTUATION (MICROTITER)
  mutagenic call: inactive; negative
Test System: AMES SALMONELLA TYPHIMURIUM, Strain/Indicator: TA7002, Metabolic Activation: NONE, Method: FLUCTUATION (MICROTITER)
  mutagenic call: inactive; negative
Test System: AMES SALMONELLA TYPHIMURIUM, Strain/Indicator: TA7002, Metabolic Activation: RAT LIVER S-9, AROCLOR 1254, Method: FLUCTUATION (MICROTITER)
  mutagenic call: inactive; negative
Test System: AMES SALMONELLA TYPHIMURIUM, Strain/Indicator: TA7003, Metabolic Activation: NONE, Method: FLUCTUATION (MICROTITER)
  mutagenic call: inactive; negative
Test System: AMES SALMONELLA TYPHIMURIUM, Strain/Indicator: TA7003, Metabolic Activation: RAT LIVER S-9, AROCLOR 1254, Method: FLUCTUATION (MICROTITER)
  mutagenic call: inactive; negative
Test System: AMES SALMONELLA TYPHIMURIUM, Strain/Indicator: TA7004, Metabolic Activation: NONE, Method: FLUCTUATION (MICROTITER)
  mutagenic call: inactive; negative
Test System: AMES SALMONELLA TYPHIMURIUM, Strain/Indicator: TA7004, Metabolic Activation: RAT LIVER S-9, AROCLOR 1254, Method: FLUCTUATION (MICROTITER)
  mutagenic call: inactive; negative
Test System: AMES SALMONELLA TYPHIMURIUM, Strain/Indicator: TA7005, Metabolic Activation: NONE, Method: FLUCTUATION (MICROTITER)
  mutagenic call: inactive; negative
Test System: AMES SALMONELLA TYPHIMURIUM, Strain/Indicator: TA7005, Metabolic Activation: RAT LIVER S-9, AROCLOR 1254, Method: FLUCTUATION (MICROTITER)
  mutagenic call: inactive; negative
Test System: AMES SALMONELLA TYPHIMURIUM, Strain/Indicator: TA7006, Metabolic Activation: NONE, Method: FLUCTUATION (MICROTITER)
  mutagenic call: inactive; negative
Test System: AMES SALMONELLA TYPHIMURIUM, Strain/Indicator: TA7006, Metabolic Activation: RAT LIVER S-9, AROCLOR 1254, Method: FLUCTUATION (MICROTITER)
  mutagenic call: inactive; negative
Test System: MOUSE LYMPHOMA, Strain/Indicator: L5178Y (TK+/TK-), Metabolic Activation: NONE, Method: SUSPENSION/PLATE
  mutagenic call: active; positive
Test System: MOUSE LYMPHOMA, Strain/Indicator: L5178Y (TK+/TK-), Metabolic Activation: RAT, LIVER, S-9, AROCLOR 1254, Method: SUSPENSION/PLATE
  mutagenic call: active; positive
Test System: Mouse lymphoma, Strain/Indicator: L5178Y (tk+/tk-), Metabolic Activation: Rat, Liver, S-9, Aroclor 1254, Method: Suspension/plate
  mutagenic call: active; positive
